Non-standard residues stand in square brackets, D forms with d. No end group written: not given here. Hyp = O=C(O)[C@@H]1C[C@@H](O)CN1

For assay [1], the system named is phenol red excretion in trachea. The assay is described as follows: Expectorant experiment, phenol red excretion method. Type of assay: in vivo, mice. The conditions noted are these: Positive control, 0.15 g/kg intragastric, 5 days. The procedure: 50 Mice were randomly divided into 5 groups according to body weight: Normal saline, negative control group, ammonium chloride positive control group and high, medium and low dose of test drug (either Compound A, above, or Compound E, below). 10 mice in each group, 5 males and 5 females.
Compound A was administered via atomization inhalation (0.15 mL/min) for 1 min, once daily for 5 days and the positive control drug was administered by intragastric administration for 5 days.
Half an hour after the last administration of Compound A, 5% phenol red solution was injected into the abdominal cavity. The mice were sacrificed after a further half an hour. The skin of the neck was removed and the trachea from the thyroid cartilage to the bifurcation was separated, soaked it in 5% sodium bicarbonate solution with constant shaking. The sodium bicarbonate solution was used to detect the phenol red content.
The absorbance at 558 nm was detected by spectrophotometry (721G Spectrophotometer, Shanghai Jingke, Shanghai, China). The optical density value was used to calculate the phenol red content In the trachea by reference to the phenol red standard curve. The results of each group and the negative control group were tested for significant t-test.

In assay [2] the test system is diabetic skin wound. The experiment in a line: Diabetic wound model II. It counts as in vivo, db/db mice (C57BL/KsJ-db/db). The procedure: A similar experiment with essentially the same protocol to that described in Example 7 above was carried out on 8 to 12 week-old male db/db mice (C57BL/KsJ-db/db) with a body weight of 35-45 g/mouse (Changzhou Cvens Experimental Animal Co. Ltd.).
Different concentrations of Compound A and Compound 1 (“A” and “1” respectively, as indicated in the Table 5 below) were prepared in substantially the same way as described in Examples 6 and 7 above.
Different drugs were administrated topically at 50 μL/wound, once daily from Day 0 to Day 12, as show in Table 5 below.
The model group was given same amount of normal saline. There were 8 mice in each group. 4 mice were in the control group. The skin pieces taken during wound creation were used as the samples at Day 7 for the control group.
Histological specimens were analyzed as described in Example 7 above, except that the collagen deposition score criterion for the Masson stained sample were as follows. A comparison was made with normal tissue. No clear blue staining was given 0 points; blue fiber appearing in a scattered pattern was scored as 1 points; if more blue fiber appeared, this was scored as 2 points, and a diffuse blue colour was given 3 points.

In assay [3] the test system is diabetic skin wound. The assay is described as follows: Diabetic wound model I. It counts as in vivo, db/db mice (C57BL/KsJ-db/db). The conditions noted are these: histology. As to the method: A similar experiment with essentially the same protocol to that described in Example 6 above was carried out on 8 to 12 week-old male db/db mice (C57BL/KsJ-db/db), with a body weight of 35-45 g/mouse (Changzhou Cvens Experimental Animal Co. Ltd.).
An EMS skin biopsy punch with a 18 mm diameter was used to make wounds.
Different drugs were administrated topically at 50 μL/wound, once daily from Day 0 to Day 12. The model group was given same amount of normal saline.
Photographs were taken for each wound every other day from Day 0. Photos were scanned into a computer, and wound areas calculated using ImageJ image analysis software (National Institute of Health, USA).
The unhealed wound area was expressed as a percentage of the original wound area: At/A0×100%, where A0 and At refer to the initial area at Day 0 and the wound area at the date of measurement (time t), respectively.
Histological specimens were analyzed and skin regeneration, fibroblast proliferation, collagen regeneration scores (Masson score) and inflammation scores were estimated as follows.
The HE and Masson stained slices were observed under an optical microscope and were scored (1, 2 or 3 points) according to the following criteria. […]

Assay [4] deals with xylene induced ear swelling. The experiment in a line: Mouse ear swelling model I (xylene). Type of assay: in vivo, BALB/c mice. The conditions noted are these: xylene on right ear, topical treatment, 40 minutes; (right ear weight−left ear weight)/left ear weight.
Protocol: The mice were randomly divided into 7 groups as described in Table 1 below, with 5 mice in each group
The left ear of each mouse was used as autologous control. 20 μL of xylene (Shanghai Aladdin Bio-Chem Technology Co., Ltd., Shanghai, China) was applied to the right ear of each mouse, both inside and outside. The ear started to swell in about 4 minutes. Then, 0.08 g of each study treatments or vehicles were applied to the right ears in each group. The mice were put back into their cages.
Vehicle-1 in Table 1 below is the cream base without active ingredients. Vehicle-2 in Table 1 below is the gel base without active ingredients.
The mice were sacrificed by cervical dislocation after 40 minutes. The left and right ears were cut off. A skin pouch (Electron Microscopy Sciences, Hatfield, Pa., USA) with a diameter of 8 mm was used to take a piece of the ear from the same site of both ears.

For `Cl.N` [NH4Cl, ammonium chloride], the “Phenol red concentration” value in assay [1] was determined as 10.335 ± 0.337 µg/mL.

Consider “Ala-Lys-Pro-Ser-Tyr-Hyp-Hyp-Thr-Tyr-Lys (AKPSY[Hyp][Hyp]TYK; not fully specified; printed as Ala-Lys-Pro-Ser-Tyr-Hyp-Hyp-Thr-Tyr-Lys) [Compound 1]”, for which the “ratio of remaining wound area of initial wound (Mean)” value was determined as 1.000 with diabetic skin wound [2] (high dose (H), D1); 1.051 in the assay on diabetic skin wound [2] (high dose (H), D2); 0.821 in the assay on diabetic skin wound [2] (high dose (H), D4); 0.718 in the assay with diabetic skin wound [2] (high dose (H), D6); 0.486 in the assay on diabetic skin wound [2] (high dose (H), D8); 0.478 in the assay with diabetic skin wound [2] (high dose (H), D10). The “ratio of remaining wound area of initial wound (Mean)” value in the assay with diabetic skin wound [2] (high dose (H), D12) is listed as 0.368; with diabetic skin wound [2] (low dose (L), D1), 1.000; in the assay with diabetic skin wound [2] (low dose (L), D2) it was 0.860; in the assay with diabetic skin wound [2] (low dose (L), D4), 0.753; with diabetic skin wound [2] (low dose (L), D6), 0.593; in the assay on diabetic skin wound [2] (low dose (L), D8), 0.467. Besides, the “ratio of remaining wound area of initial wound (Mean)” value in the assay with diabetic skin wound [2] (low dose (L), D10) came to 0.433; with diabetic skin wound [2] (low dose (L), D12) it was 0.306; in the assay with diabetic skin wound [2] (medium dose (M), D1) it was 1.000; with diabetic skin wound [2] (medium dose (M), D2), 0.991; in the assay on diabetic skin wound [2] (medium dose (M), D4), 0.895; with diabetic skin wound [2] (medium dose (M), D6), 0.786. The “ratio of remaining wound area of initial wound (Mean)” value in the assay on diabetic skin wound [2] (medium dose (M), D8) amounted to 0.552; in the assay on diabetic skin wound [2] (medium dose (M), D10), 0.490; with diabetic skin wound [2] (medium dose (M), D12) it was 0.344. Besides, the wound healing result in the assay on diabetic skin wound [2] (low dose, earlier stages after wound infliction) is reported as “prompted wound healing in the earlier stages”. In addition, the Fibroblast proliferation score result in the assay on diabetic skin wound [3] is given as “could promote”. In the assay on diabetic skin wound [3], the Skin regeneration score result is “could promote the skin regeneration”. Moreover, the Swelling rate in assay [4] is 61.5%.

Values taken from patent publication US11680082B2, “Conjugates of montelukast and peptides” (ENLITISA (SHANGHAI) PHARMACEUTICAL CO., LTD, priority 2018, dated 2023).
